In US20220354911A1, “TREATMENT OF TUMORS BY A COMBINATION OF AN ONCOLYTIC ADENOVIRUS, A CDK4/6 INHIBITOR AND A FURTHER THERAPEUTICALLY ACTIVE AGENT” (KLINIKUM RECHTS DER ISAR DER TECHNISCHEN UNIVERSITÄT MÜNCHEN, priority 2019, published 2022):

What was measured:
dl703 = assay: E1A-independent viral DNA replication of dl703 (fiber qPCR); format: cell-based, Mastadenovirus, Type C, Serotype 5; conditions: UMUC cells, 10 μM Lee, 50 MOI dl703, 48 hours post infection
Description: To investigate the differences in replication of dl703 (Mantwill et al. 2013, Journal of Translational Medicine, 11, 216) under different treatment conditions, DNA-replication analysis was performed. 100,000 UMUC cells were seeded in 6-well plates and grown in DMEM medium containing 10% FCS in 5% CO2 conditions at 37° C. 24 hours post seeding cells were treated for 24 hours with 10 μM Lee (Ribociclib), 1 μM CI-1040, 10 μM Nutlin-3a and 10 μM Roscovertine and again after infection adding an appropriate amount of inhibitors to the medium. Infection with 50 MOI dl703 (Mastadenovirus, Type C, Serotype 5 with a 3.2 kb sized deletion in E1 region) took place 24 hours post treatment. After 4 and 48 hours post infection DNA were isolated and qPCR was performed using specific primers for the viral fiber gene. Fiber fwd. 5′-[…]-3′ (SEQ ID NO: 17); Fiber rev. 5′-[…]-3′ (SEQ ID NO: 18).

LN229 cells = assay: Western blot of XVir-N-31 infected LN229 cells, LEE011 and JQ1; format: cell-based
Description: 2.5×10^5 LN229 cells were seeded in 10 cm plates in DMEM medium. The following day the cells were treated with 500 nM LEE011 and 200 nM JQ1 or a combination of both. At the next morning the cells were infected with XVir-N-31 at 20 MOI. One hour after infection DMEM Medium containing the inhibitors was added on the cells. After each time point (24, 48, 72 hours) the cells were put on ice, washed twice with ice-cold PBS and 300 μl of SDS Protein Lysis Buffer was added. The cells were transferred to reaction tubes and the DNA sheared with a syringe and a needle and the supernatant transferred for further use after centrifugation. The protein concentration was measured with a BCA assay and samples with 4× Lämmli:DTT 6:1 and a concertation of 20 μg were produced and transferred to a 10% SDS gel. The gel electrophoresis started at 90V and was increased to 150V after the ladder started to separate. The proteins on the gel were blotted to a membrane for 2 hours at 100V and blocked in 5% milk in TBS-T for 1 hour at RT. After washing in TBS-T, the first antibody was added according to the manufacturer's information over night at 4° C. The used antibodies were directed to GAPDH, E1A, DBP, E2F1, Rb, pRb for all time points, and caspase 3 and the full length and cleaved version of PARP additionally for the 72 hours samples. The next day, the washing was repeated and the secondary antibody added for 1 hour at RT. Following the washing, ECL was used to image the chemiluminescence by the ChemiDoc™ MP Imaging System.

UMUC3 cells = assay: Cell cycle analysis (flow cytometry) of UMUC3 cells; format: cell-based, human; conditions: UMUC3, 48 hours; Roscovitine 10 μM, CI-1040 1 μM, Nutlin-3a 10 μM, LEE011 10 μM; 10 MOI dl703
Description: FIG. 10 is a bar diagram showing cell cycle distribution in UMUC3 cells, measured 48 hours post treatment, whereby the concentrations of the […] inhibitors was as follows: Roscovitine: 10 μM, CI-1040: 1 μM, Nutlin-3a: 10 μM, and LEE011: 10 μM.
For cell cycle analysis cells were seeded in 6 well plates (2.5×10E4 c/well). 8 hours before infection with dl703, cells were treated with indicated concentration of cell cycle inhibitors. After infection with 10 MOI dl703 cells were again treated for 48 hours. Untreated cells and dl703 infected cells only, served as control. 48h post infection cells were harvest by trypsinization and fixed with 80% ethanol while vortexing. To investigate the cell cycle status, fixed cells were centrifuged 5 min at RT and 300 g and ethanol was aspirated. Cells were resuspended and washed with 1% BSA-PBS (Bovine Serum Albumin) and again centrifuged. Cells were stained with EDU and cell cycle analysis were performed using the Click-iT™ Plus EdU Flow Cytometry Assay Kits, Catalog nos. C10632 from Thermo Fischer. In addition, after 3× times washing with 1% BSA/PBS cells were stained with PI (Propidium Iodine, 50 μg/ml). Measurement was directly performed after staining with a FACScalibur Flow Cytometry System. Data was analyzed with FlowJo software.

[1] = system: U87 cells, LN229 cells or T98G cells; assay: SRB cell survival in glioblastoma cells, XVir-N-31, JQ1 and LEE011; format: cell-based; conditions: all three glioblastoma cell lines
Description: 2×10^4 cells (U87 cells, LN229 cells or T98G cells) were seeded in 12 well plates in DMEM medium and inhibitor treated at the next day. 48 hours post seeding the cells were infected with XVir-N-31. After 4 days the cells were fixated using 10% TCA. The plates were stained using a 0.1% SRB solution. The surplus was removed and the plates were washed with 1% acetic acid. After removing the acetic acid, the plates were air dried overnight. The SRB was solved in 1 ml of a 10 mM Tris Base solution and a 1:10 dilution was measured using a photometer at 560 nm.

Rb, phRB and E2F1 = assay: Western blot of UMUC cells treated with cell cycle inhibitors; format: cell-based, human; conditions: 24 hours post-treatment, LEE-011 at 10 μM, MI-1040 at 1 μM
Description: Western Blot analysis of UMUC cells treated with indicated concentrations of CI-1040, Roscovitine, Nutlin-3a and LEE011 (Ribociclib). 1×10^6 cells were seeded in 10 cm dishes. 24 hours post-treatment proteins were isolated using 1% SDS buffer, to achieve the disruption of the nuclear membrane. All samples were drawn up several times into a syringe to disrupt the DNA and subsequently centrifuged at 30000 rpm at 4° C. for 30 minutes. The supernatant was transferred to a new reaction tube and directly used for further steps or stored at −80° C. To separate the proteins a sodium dodecyl sulfate polyacrylamide gel electrophoresis was performed. By means of electrophoresis for approximately two hours at 100V at 4° C., 40 μg of total proteins were loaded and probed against specific indicated antibodies.

[2] = LN229, with XVir-N-31, 48 hours post infection
[3] = LN229, with XVir-N-31, 72 hours post infection

CN(C)C(=O)c1cc2cnc(Nc3ccc(N4CCNCC4)cn3)nc2n1C1CCCC1 [LEE011]
increase of viral DNA replication of dl703 (dl703): ~100 fold
viral proteins E1A and DBP (LN229 cells; LN229, XVir-N-31 MOI 20, 500 nM LEE011 or/and 200 nM JQ-1, 24 hours post infection): increased
viral proteins E1A and DBP (LN229 cells; LN229, XVir-N-31 MOI 20, 500 nM LEE011 or/and 200 nM JQ-1, 48 hours post infection): increased
viral proteins E1A and DBP (LN229 cells; LN229, XVir-N-31 MOI 20, 500 nM LEE011 or/and 200 nM JQ-1, 72 hours post infection): increased
cellular proteins Rb and pRb (LN229 cells; LN229, with XVir-N-31, 24 hours post infection): remained inhibited
E2F-1 (LN229 cells; [2]): stabilized
cellular proteins Rb and pRb (LN229 cells; [2]): remained inhibited
E2F1 (LN229 cells; [3]): enhanced
cellular protein Rb (LN229 cells; [3]): decreased
presence of cleaved PARP (LN229 cells; XVir-N-31 infected LN229 cells, 72 hours post infection): increased
cell cycle distribution (UMUC3 cells): clear G1-arrest
cell killing on addition of LEE011 to JQ1 and XVir-N-31 [1]: increased even further
Rb, phRB and E2F1 expression (Rb, phRB and E2F1): induced inhibition
